Results on 38 molecules are retold here after the Kinase Knowledgebase extract (Sharma et al. 2016).

The target in the experiment is EGFR (UniProt P00533).

Converted amounts (≈) assume the structure as drawn.

Sequence of EGFR (P00533 whole entry, looked up): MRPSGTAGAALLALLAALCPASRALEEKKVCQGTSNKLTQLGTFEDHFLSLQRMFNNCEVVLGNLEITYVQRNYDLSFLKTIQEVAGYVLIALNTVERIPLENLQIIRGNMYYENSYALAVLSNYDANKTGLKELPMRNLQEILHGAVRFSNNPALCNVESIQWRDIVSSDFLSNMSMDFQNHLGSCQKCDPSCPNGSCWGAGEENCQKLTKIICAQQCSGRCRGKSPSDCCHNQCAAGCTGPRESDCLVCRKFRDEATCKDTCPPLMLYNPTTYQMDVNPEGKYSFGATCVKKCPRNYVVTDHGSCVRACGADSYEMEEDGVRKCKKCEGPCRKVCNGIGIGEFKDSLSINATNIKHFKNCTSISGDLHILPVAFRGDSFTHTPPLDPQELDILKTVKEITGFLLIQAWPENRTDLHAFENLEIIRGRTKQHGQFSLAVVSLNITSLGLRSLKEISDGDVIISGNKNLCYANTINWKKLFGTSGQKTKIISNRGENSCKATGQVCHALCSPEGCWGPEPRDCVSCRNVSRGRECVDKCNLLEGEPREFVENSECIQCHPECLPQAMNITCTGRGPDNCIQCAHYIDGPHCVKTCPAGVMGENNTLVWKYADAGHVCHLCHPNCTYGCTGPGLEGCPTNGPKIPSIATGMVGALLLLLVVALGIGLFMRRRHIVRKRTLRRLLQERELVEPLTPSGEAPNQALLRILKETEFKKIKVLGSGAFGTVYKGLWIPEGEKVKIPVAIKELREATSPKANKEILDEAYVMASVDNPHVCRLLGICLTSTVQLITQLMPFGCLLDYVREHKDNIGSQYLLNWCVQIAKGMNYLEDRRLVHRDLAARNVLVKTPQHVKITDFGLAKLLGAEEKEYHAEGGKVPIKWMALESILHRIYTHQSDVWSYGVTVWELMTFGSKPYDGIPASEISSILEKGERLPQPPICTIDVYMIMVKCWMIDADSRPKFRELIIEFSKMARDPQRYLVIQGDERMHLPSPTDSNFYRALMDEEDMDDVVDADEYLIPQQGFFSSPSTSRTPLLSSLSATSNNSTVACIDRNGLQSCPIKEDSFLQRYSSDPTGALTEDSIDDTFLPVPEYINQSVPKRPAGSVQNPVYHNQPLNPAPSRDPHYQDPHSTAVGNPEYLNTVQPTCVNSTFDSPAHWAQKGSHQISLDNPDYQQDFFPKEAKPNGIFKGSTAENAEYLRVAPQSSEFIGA

For orientation: IC50 means the point on the concentration scale where inhibition reaches its midpoint. Low readings indicate higher potency, high ones lower potency. Regarding `COc1cc(Nc2ncnc(Nc3cc(Cl)ccc3C)n2)cc(OC)c1OC`, the IC50 is under 0.4 µg/mL.
As to `COc1cc(Nc2ncnc(-n3c(Nc4ccc(C(C)C)cc4)nc4ccccc43)n2)cc(OC)c1OC`, the IC50 was over 4.5 µg/mL.
With `COc1ccc(Nc2ncnc(Nc3ccc(Br)cc3F)n2)cc1OC`, the IC50 was 2.4 to 3.5 µg/mL (≈ 5.71 to 8.33 µM).
`COc1cc(Nc2ncnc(-c3cccnc3NC(C)c3ccccc3)n2)cc(OC)c1OC` (stereo not drawn) registered an IC50 of over 4.5 µg/mL.
In the case of `COc1cc(Nc2ncnc(-c3ccc(N4CCOCC4)nc3)n2)cc(OC)c1OC` it was over 4.5 µg/mL; in that of `O=c1[nH]c2ccccc2n1-c1ncnc(Nc2ccc(C(F)(F)F)cc2)n1`, over 4.5 µg/mL.
In the case of `COc1cc(Nc2ncnc(-n3ccc4cc(O)ccc43)n2)cc(OC)c1OC` it was over 4.5 µg/mL.
The result for `Nc1ncnc(Nc2cccc(Nc3ncnc(N)n3)c2)n1` reads over 4.5 µg/mL.
Molecule `CC(C)(C)c1ccc(Nc2ncnc(-n3c(N)nc4ccccc43)n2)cc1` registered an IC50 of over 4.5 µg/mL.
In the case of `NC(=O)c1ccc(Nc2ncnc(-c3cccs3)n2)cc1` it was over 4.5 µg/mL.
In the case of `FC(F)C(F)(F)Oc1cccc(Nc2ncnc(-c3cccs3)n2)c1` it was over 4.5 µg/mL.
In the case of `COc1ccc(Nc2ncnc(N(C)[C@H](C)c3ccccc3)n2)cc1OC` it was 0.4 to 2.4 µg/mL (≈ 1.09 to 6.57 µM).
`c1ccc(CCNc2ncnc(Nc3ccc4c(cnn4Cc4ccccc4)c3)n2)cc1`: the IC50 was over 4.5 µg/mL.
The result for `COc1cc(Nc2ncnc(-n3c(N)nc4ccccc43)n2)cc(OC)c1` reads over 4.5 µg/mL.
The molecule `COc1cc(Nc2ncnc(Nc3cc(OC)c(OC)c(OC)c3)n2)cc(OC)c1` yielded an IC50 of over 4.5 µg/mL.
In the case of `COc1ccc(N(C)c2ncnc(Nc3ccc(OC)c(OC)c3)n2)cc1` it was under 0.4 µg/mL; in that of `COc1ccc(Nc2ncnc(Nc3cccc(C)c3)n2)cc1OC`, under 0.4 µg/mL; in that of `CN(c1cccc(Cl)c1)c1ncnc(Nc2cc(Cl)c(Cl)c(Cl)c2)n1`, over 4.5 µg/mL.
The result for `COc1cc(Nc2ncnc(NC3CC3c3ccccc3)n2)cc(OC)c1OC` (stereo not drawn) reads under 0.4 µg/mL.
The result for `COc1cc(Nc2ncnc(N(Cc3ccccc3)c3nc4ccccc4[nH]3)n2)cc(OC)c1OC` reads 2.4 to 3.5 µg/mL (≈ 4.96 to 7.24 µM).
`COc1cc(Nc2ncnc(-c3cccnc3)n2)cc(OC)c1OC` registered an IC50 of over 4.5 µg/mL.
On to `COc1cc(C)c(Nc2ncnc(Nc3cc(-c4ccc(C)cc4)n[nH]3)n2)cc1OC`, for which the IC50 is over 4.5 µg/mL.
In the case of `COc1cc(Nc2ncnc(Nc3ccc(Cl)c4ccccc34)n2)cc(OC)c1OC` it was under 0.4 µg/mL; in that of `COC(=O)Cc1cccc(Nc2ncnc(-n3c(N)nc4ccccc43)n2)c1`, 2.4 to 3.5 µg/mL (≈ 6.39 to 9.32 µM); in that of `Cc1ccc2c(c1)CCCN2c1ncnc(Nc2ccc3ncsc3c2)n1`, 0.4 to 2.4 µg/mL (≈ 1.07 to 6.41 µM).
In the case of `O=c1[nH]c2ccccc2n1-c1ncnc(Nc2cccc(Cl)c2)n1` it was 2.4 to 3.5 µg/mL (≈ 7.08 to 10.3 µM); in that of `Clc1cccc(Nc2ncnc(Nc3cc(-c4ccccc4)n[nH]3)n2)c1`, under 0.4 µg/mL; in that of `O=c1[nH]c2ccccc2n1-c1ncnc(Nc2ccc(Cl)cc2Cl)n1`, over 4.5 µg/mL.
The result for `O=S(=O)(O)c1cccc(Nc2ncnc(Nc3cc(-c4ccco4)[nH]n3)n2)c1` reads under 0.4 µg/mL.
In turn, `COc1ccc(Nc2ncnc(NCc3c(C)cccc3Cl)n2)cc1OC` returned an IC50 of over 4.5 µg/mL.
`C#Cc1cccc(Nc2ncnc(Nc3cc(-c4ccccc4)n[nH]3)n2)c1`: the IC50 is 0.4 to 2.4 µg/mL (≈ 1.13 to 6.79 µM).
Take `Nc1nc2ccccc2n1-c1ncnc(Nc2ccc(S(N)(=O)=O)cc2)n1`: the IC50 was over 4.5 µg/mL.
In the case of `CN(c1cccc(Cl)c1)c1ncnc(Nc2cccc(OC(F)(F)F)c2)n1` it was under 0.4 µg/mL; in that of `COc1cc(Nc2ncnc(-n3c(NCc4ccccn4)nc4ccccc43)n2)cc(OC)c1OCCn1ccnn1`, over 4.5 µg/mL; in that of `COCCOc1cc(Nc2ncnc(Nc3ccc(C)c(O)c3)n2)ccc1OC`, under 0.4 µg/mL.
The result for `COC(=O)c1ccc(-c2cc(Nc3ncnc(Nc4cccc(CC(=O)O)c4)n3)[nH]n2)cc1` reads 0.4 to 2.4 µg/mL (≈ 0.898 to 5.39 µM).
In the case of `COc1ccc(Nc2ncnc(-n3c(N)nc4ccccc43)n2)cn1` it was over 4.5 µg/mL.
The molecule `COc1cc(Nc2ncnc(Nc3ccc(O)cc3Cl)n2)cc(OC)c1OC` came in with an IC50 of 0.4 to 2.4 µg/mL (≈ 0.991 to 5.94 µM).
